Measurements reported in ChEMBL document CHEMBL1201862, “PubChem BioAssay data set” (2004).
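Grown in 96-well plates, cells were treated for 48 hours with each compound at five concentrations. Insufficient inhibition: endpoint recorded as highest concentration tested. The concentration for 50% growth inhibition is given as GI50.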 Active and inactive are the calls of the source. No stated cut-off is given here; in the data, active = GI50 up to about 1.1 µM and inactive = higher.

What was measured:
Experiment in all cases: inhibition of tumour cell growth, NCI panel, 48 h
T47D = system: T47D
CCRF-CEM = system: CCRF-CEM
EKVX = system: EKVX
Hs-578T = system: Hs-578T
HOP-62 = system: HOP-62
CAKI-1 = system: CAKI-1
K562 = system: K562
MDA-N = system: MDA-N
SNB-19 = system: SNB-19
A498 = system: A498
MDA-MB-231 = system: MDA-MB-231
SF-268 = system: SF-268
SF-295 = system: SF-295
SR = system: SR
NCI-H23 = system: NCI-H23
MDA-MB-435 = system: MDA-MB-435
OVCAR-5 = system: OVCAR-5
RXF 393 = system: RXF 393
A549 = system: A549
NCI-H226 = system: NCI-H226
MCF7 = system: MCF7
NCI-H522 = system: NCI-H522
NCI/ADR-RES = system: NCI/ADR-RES
TK-10 = system: TK-10
HL-60 = system: HL-60
Malme-3M = system: Malme-3M
ACHN = system: ACHN
786-0 = system: 786-0
LOX IMVI = system: LOX IMVI
HCT-116 = system: HCT-116
OVCAR-3 = system: OVCAR-3
HCC 2998 = system: HCC 2998
SK-MEL-28 = system: SK-MEL-28
UO-31 = system: UO-31
KM12 = system: KM12
BT-549 = system: BT-549
UACC-62 = system: UACC-62
UACC-257 = system: UACC-257
PC-3 = system: PC-3
DU-145 = system: DU-145
COLO 205 = system: COLO 205
OVCAR-4 = system: OVCAR-4
SN12C = system: SN12C
HT-29 = system: HT-29
SW-620 = system: SW-620
M14 = system: M14
RPMI-8226 = system: RPMI-8226
NCI-H460 = system: NCI-H460
HOP-92 = system: HOP-92
IGROV-1 = system: IGROV-1
OVCAR-8 = system: OVCAR-8
HCT-15 = system: HCT-15
SNB-75 = system: SNB-75
U-251 = system: U-251
SK-MEL-2 = system: SK-MEL-2
SK-OV-3 = system: SK-OV-3
SK-MEL-5 = system: SK-MEL-5
SF-539 = system: SF-539
MOLT-4 = system: MOLT-4

## O=C1C2CC(Cl)C(SSC3CC4C(=O)N(SC(Cl)(Cl)C(Cl)Cl)C(=O)C4CC3Cl)CC2C(=O)N1SC(Cl)(Cl)C(Cl)Cl (stereo not drawn)
T47D
  GI50: 2250 nM (inactive)
CCRF-CEM
  GI50: 249 nM (active)
EKVX
  GI50: 3010 nM (inactive)
Hs-578T
  GI50: 2370 nM (inactive)
HOP-62
  GI50: 2810 nM (inactive)
CAKI-1
  GI50: 2110 nM (inactive)
K562
  GI50: 979 nM (active)
MDA-N
  GI50: 1700 nM (inactive)
SNB-19
  GI50: 3860 nM (inactive)
A498
  GI50: 2810 nM (inactive)
MDA-MB-231
  GI50: 1540 nM (inactive)
SF-268
  GI50: 1650 nM (inactive)
SF-295
  GI50: 5130 nM (inactive)
SR
  GI50: 229 nM (active)
NCI-H23
  GI50: 1660 nM (inactive)
MDA-MB-435
  GI50: 1650 nM (inactive)
OVCAR-5
  GI50: 17000 nM (inactive)
RXF 393
  GI50: 1330 nM (inactive)
A549
  GI50: 2860 nM (inactive)
NCI-H226
  GI50: 3670 nM (inactive)
MCF7
  GI50: 1670 nM (inactive)
NCI-H522
  GI50: 379 nM (active)
NCI/ADR-RES
  GI50: 2060 nM (inactive)
TK-10
  GI50: 2590 nM (inactive)
HL-60
  GI50: 543 nM (active)
Malme-3M
  GI50: 1510 nM (inactive)
ACHN
  GI50: 2230 nM (inactive)
786-0
  GI50: 1560 nM (inactive)
LOX IMVI
  GI50: 1340 nM (inactive)
HCT-116
  GI50: 2490 nM (inactive)
OVCAR-3
  GI50: 2050 nM (inactive)
HCC 2998
  GI50: 4430 nM (inactive)
SK-MEL-28
  GI50: 2150 nM (inactive)
UO-31
  GI50: 1940 nM (inactive)
KM12
  GI50: 5040 nM (inactive)
BT-549
  GI50: 1700 nM (inactive)
UACC-62
  GI50: 1690 nM (inactive)
UACC-257
  GI50: 2020 nM (inactive)
PC-3
  GI50: 1290 nM (inactive)
DU-145
  GI50: 2600 nM (inactive)
COLO 205
  GI50: 1780 nM (inactive)
OVCAR-4
  GI50: 2130 nM (inactive)
SN12C
  GI50: 1910 nM (inactive)
HT-29
  GI50: 1770 nM (inactive)
SW-620
  GI50: 1270 nM (inactive)
M14
  GI50: 1210 nM (inactive)
RPMI-8226
  GI50: 1810 nM (inactive)
NCI-H460
  GI50: 2390 nM (inactive)
HOP-92
  GI50: 1610 nM (inactive)
IGROV-1
  GI50: 1300 nM (inactive)
OVCAR-8
  GI50: 1450 nM (inactive)
HCT-15
  GI50: 1290 nM
SNB-75
  GI50: 2050 nM (inactive)
U-251
  GI50: 1400 nM (inactive)
SK-MEL-2
  GI50: 1530 nM (inactive)
SK-OV-3
  GI50: 3390 nM (inactive)
SK-MEL-5
  GI50: 1970 nM (inactive)
SF-539
  GI50: 2320 nM (inactive)
MOLT-4
  GI50: 192 nM (active)

## Cc1cnc2[nH]c(-c3cccc(F)c3)cc(=O)c2c1
T47D
  GI50: 15600 nM (inactive)
CCRF-CEM
  GI50: 35.3 nM (active)
EKVX
  GI50: 200 nM (active)
Hs-578T
  GI50: 12.1 nM (active)
HOP-62
  GI50: 66.2 nM (active)
CAKI-1
  GI50: 31.7 nM (active)
K562
  GI50: 26.6 nM (active)
MDA-N
  GI50: 11.2 nM (active)
SNB-19
  GI50: 54.6 nM (active)
A498
  GI50: 57.9 nM (active)
MDA-MB-231
  GI50: 50.5 nM (active)
SF-268
  GI50: 70.5 nM (active)
SF-295
  GI50: 32.2 nM (active)
SR
  GI50: 22.9 nM (active)
NCI-H23
  GI50: 151 nM (active)
MDA-MB-435
  GI50: < 10 nM (active)
OVCAR-5
  GI50: 73.8 nM (active)
RXF 393
  GI50: 41.8 nM (active)
A549
  GI50: 51.5 nM (active)
NCI-H226
  GI50: 43.2 nM (active)
MCF7
  GI50: 115 nM (active)
NCI-H522
  GI50: 25.5 nM (active)
NCI/ADR-RES
  GI50: 14.6 nM (active)
TK-10
  GI50: 161 nM (active)
HL-60
  GI50: 18.6 nM (active)
Malme-3M
  GI50: 23.2 nM (active)
ACHN
  GI50: 66.4 nM (active)
786-0
  GI50: 38.4 nM (active)
LOX IMVI
  GI50: 66.8 nM (active)
HCT-116
  GI50: 34 nM (active)
OVCAR-3
  GI50: 13.9 nM (active)
HCC 2998
  GI50: 111 nM (active)
SK-MEL-28
  GI50: 35.2 nM (active)
UO-31
  GI50: 72.4 nM (active)
KM12
  GI50: 32.7 nM (active)
BT-549
  GI50: 75.7 nM (active)
UACC-62
  GI50: 39.2 nM (active)
UACC-257
  GI50: > 100000 nM (inactive)
PC-3
  GI50: 23.9 nM (active)
DU-145
  GI50: 45.9 nM (active)
COLO 205
  GI50: 21.4 nM (active)
OVCAR-4
  GI50: 1310 nM (inactive)
SN12C
  GI50: 68.7 nM (active)
HT-29
  GI50: 30.8 nM (active)
SW-620
  GI50: 25.2 nM (active)
M14
  GI50: 34.2 nM (active)
RPMI-8226
  GI50: 40.2 nM (active)
NCI-H460
  GI50: 41.1 nM (active)
HOP-92
  GI50: 1400 nM (inactive)
IGROV-1
  GI50: 161 nM (active)
OVCAR-8
  GI50: 58.2 nM (active)
HCT-15
  GI50: 26.7 nM
SNB-75
  GI50: 17.1 nM (active)
U-251
  GI50: 40.5 nM (active)
SK-MEL-2
  GI50: 80.2 nM (active)
SK-OV-3
  GI50: 36.8 nM (active)
SK-MEL-5
  GI50: 32.9 nM (active)
SF-539
  GI50: 32.6 nM (active)
MOLT-4
  GI50: 53.1 nM (active)
